Converted amounts (≈) assume the structure as drawn.
Legend:
[1] = test system: S. aureus 340; assay: MIC, broth microdilution; format: cell-based, Staphylococcus aureus; settings: for MIC: Staphylococcus aureus, 340, 24 h; for MIC S. aureus 340: 24 h
Description: (§1) Antimicrobial activity of the compounds was studied by determination of minimal inhibitory concentrations (MIC) according to the NCCLS guidelines M7-A2 using the microbroth dilution methods. The bacteria strains were grown on trypticase soy agar (Becton Dickinson) at 37 °C for 24 h. Inocula were prepared in TCE (tryptone 0.1%, […], wt/vol) by ajusting the turbidity at 623 nm to obtain 1–3 10^5 CFU/mL.
(§2) Antimicrobial activities of the compounds were determined by using a broth microdilution method performed in sterile 96-well microplates. All compounds were solubilized in water at a concentration of 10 mM and were transferred to each microplate well in order to obtain a two-fold serial dilution in 100 µL of broth and 100 µL of inoculum containing 2–6 10^5 CFU of each bacterium were added to each well. Some wells were reserved for positive controls and inoculum viability.

[2] = test system: S. aureus ATCC 25923; assay: MIC, broth microdilution; format: cell-based, Staphylococcus aureus; settings: Staphylococcus aureus, ATCC25923, 24 h, ATCC strain
Description: as §1, §2

[3] = test system: S. intermedius 1051997; assay: MIC, broth microdilution; format: cell-based, Staphylococcus intermedius; settings: for MIC: Staphylococcus intermedius, 1051997, 24 h, 24 h
Description: as §1, §2

[4] = test system: E. faecalis ATCC29212; assay: MIC, broth microdilution; format: cell-based, Enterococccus faecalis; settings: Enterococcus faecalis, ATCC29212, 24 h, ATCC strain, read-out: MIC E. faecalis 29212
Description: as §1, §2

[5] = test system: P. aeruginosa 1051575; assay: MIC, broth microdilution; format: cell-based, Pseudomonas aeruginosa; settings: 24 h; for MIC: Pseudomonas aeruginosa, 1051575, 24 h
Description: as §1, §2

[6] = test system: Chinese hamster Ovary cells (CHO-K1); assay: Cytotoxicity assay (WST-1 / Neutral Red); format: cell-based; settings: 24-h incubation; for IC50: Cricetulus griseus, 24 h
Description: The cytotoxic activities of compounds were assessed on Chinese hamster Ovary cells (CHO-K1) provided from ATCC-LGC Standards Sarl (Molsheim, France). Cells were maintained in Mc Coy’s 5A (CHO) medium supplemented with 10% bovine calf serum, 2 mM glutamine, and 100 U mL^−1/10 µg mL^−1 penicillin/streptomycin mixtures. For the cytotoxicity experiments, they were seeded in 96-well plates and incubated at 37 °C in humidified atmosphere containing 5% CO2 overnight, then concentrations of compounds were incorporated in triplicate cultures. After a 24-h incubation period at 37 °C, cells were submitted to three successive washes in phosphate buffer saline (PBS) and cell viability was evaluated by two different vital dyes: • i. A first set of cell cultures was incubated in PBS containing 10% WST-1 for 30 min at 37 °C, 5% CO2. Cell viability was evaluated by the assessment of WST-1 absorbance at 450 nm in a microplate spectrophotometer. • ii. A second set of cell cultures was placed into Neutral Red medium (50 μg mL^−1 Neutral Red in complete medium) and incubated for 3 h at 37 °C, 5% CO2. Then the Neutral Red medium was removed and the distaining solution (50% ethanol, 1% acetic acid, 49% distilled water; 50 µL per well) was added into the wells. The plates were shaken for 15–20 min at room temperature in the dark. Cell viability was evaluated by the assessment of absorbance at 540 nm in a microplate spectrophotometer.
Results were expressed as percentages of cell viability about the control (culture medium-only), which corresponded to 100% cell viability. Dose-response curves were calculated by non-linear regression analysis with TableCurve 2D software (V 5.0.1) (Systat Software Inc., San Jose, CA, USA). The Inhibitory Concentration 50% (IC50) was defined as the concentration of compounds that induced a 50% decrease of viable cells.

[7] = test system: E. coli 1956; assay: MIC, broth microdilution; format: cell-based, Escherichia coli; settings: Escherichia coli, 1956, 24 h
Description: as §1, §2

[8] = test system: E. coli ATCC 25922; assay: MIC, broth microdilution; format: cell-based, Escherichia coli; settings: Escherichia coli, ATCC25922, 24 h, ATCC strain
Description: as §1, §2

[9] = test system: P. aeruginosa ATCC 27853; assay: MIC, broth microdilution; format: cell-based, Pseudomonas aeruginosa; settings: Pseudomonas aeruginosa, ATCC27853, 24 h, ATCC strain
Description: as §1, §2

## CC[C@H]1OC(=O)[C@H](C)[C@@H](O[C@H]2C[C@@](C)(OC)[C@@H](O)[C@H](C)O2)[C@H](C)[C@@H](O[C@@H]2O[C@H](C)C[C@H](N(C)C)[C@H]2O)[C@](C)(O)C[C@@H](C)C(=O)[C@H](C)[C@@H](O)[C@]1(C)O [Ery, Erythromycine, reference compound]
[1]
  MIC: 1 µg/mL (≈ 1.36 µM)
[2]
  MIC: 1 µg/mL (≈ 1.36 µM)
[3]
  MIC: 1 µg/mL (≈ 1.36 µM)
[4]
  MIC: 1 µg/mL (≈ 1.36 µM)

## CC(C)OC(=O)CCC(C)C1CCC2C3CCC4CC(NCCCN5CCN(CCCN)CC5)CCC4(C)C3CC(O)C12C (stereo not shown) [Claramine A26]
[1]
  MIC: 62 µg/mL (≈ 100 µM)
[5]
  MIC: 62 µg/mL (≈ 100 µM)
[6]
  IC50: 160 µg/mL (≈ 259 µM)

## COC(=O)CCC(C)C1CCC2C3C(O)CC4CC(NCCCNCCCN)CCC4(C)C3CC(O)C12C (stereo not shown) [Claramine B02]
[1]
  MIC: 7 µg/mL (≈ 13.1 µM)
[5]
  MIC: 13 µg/mL (≈ 24.3 µM)
[6]
  IC50: 27 µg/mL (≈ 50.4 µM)

## CC(C)OC(=O)CCC(C)C1CCC2C3CCC4CC(NCCN(CCN)CCN)CCC4(C)C3CCC12C (stereo not shown) [Claramine E22]
[1]
  MIC: 14 µg/mL (≈ 25.6 µM)
[2]
  MIC: 14 µg/mL (≈ 25.6 µM)
[3]
  MIC: 7 µg/mL (≈ 12.8 µM)
[4]
  MIC: 55 µg/mL (≈ 101 µM)
[7]
  MIC: 55 µg/mL (≈ 101 µM)
[8]
  MIC: 110 µg/mL (≈ 201 µM)
[5]
  MIC: 55 µg/mL (≈ 101 µM)
[9]
  MIC: 110 µg/mL (≈ 201 µM)
[6]
  IC50 CHO: 105 µg/mL (≈ 192 µM)
  IC50: 107 µg/mL (≈ 196 µM)

## CC(CCC(=O)OC(C)(C)C)C1CCC2C3CCC4CC(NCCCNCCCCNCCCN)CCC4(C)C3CC(O)C12C (stereo not shown) [Claramine A22]
[1]
  MIC: < 4 µg/mL
[6]
  IC50 CHO: 38 µg/mL (≈ 60 µM)
  IC50: > 35 µg/mL

## CC(C)OC(=O)CCC(C)C1CCC2C3C(O)CC4CC(NCCCN5CCN(CCCN)CC5)CCC4(C)C3CC(O)C12C (stereo not shown) [Claramine B16]
[1]
  MIC: 16 µg/mL (≈ 25.3 µM)
[5]
  MIC: 16 µg/mL (≈ 25.3 µM)
[6]
  IC50: 260 µg/mL (≈ 411 µM)

## CC(CCC(=O)OC(C(F)(F)F)C(F)(F)F)C1CCC2C3CCC4CC(NCCCNCCCCNCCCN)CCC4(C)C3CC(O)C12C (stereo not shown) [Claramine A25]
[6]
  IC50: 4 µg/mL (≈ 5.5 µM)

## CC(C)OC(=O)CCC(C)C1CCC2C3C(O)CC4CC(NCCCN5CCN(CCCN)CC5)CCC4(C)C3CCC12C (stereo not shown) [Claramine C24]
[1]
  MIC S. aureus 340: 8 µg/mL (≈ 13 µM)
[2]
  MIC: 8 µg/mL (≈ 13 µM)
[3]
  MIC: 4 µg/mL (≈ 6.48 µM)
[4]
  MIC: 15 µg/mL (≈ 24.3 µM)
[7]
  MIC: 30 µg/mL (≈ 48.6 µM)
[8]
  MIC: 15 µg/mL (≈ 24.3 µM)
[5]
  MIC P. aeruginosa 1051575: 30 µg/mL (≈ 48.6 µM)
[9]
  MIC: 30 µg/mL (≈ 48.6 µM)

## CC(C)OC(=O)CCC(C)C1CCC2C3CCC4CC(NCCN(CCN)CCN)CCC4(C)C3CC(O)C12C (stereo not shown) [Claramine A29]
[1]
  MIC: 14 µg/mL (≈ 24.9 µM)
[5]
  MIC: 56 µg/mL (≈ 99.5 µM)
[6]
  IC50: 141 µg/mL (≈ 250 µM)

## CC(C)OC(=O)CCC(C)C1CCC2C3C(O)CC4CC(NCCCNCCCN)CCC4(C)C3CC(O)C12C (stereo not shown) [Claramine B15]
[1]
  MIC: 14 µg/mL (≈ 24.8 µM)
[5]
  MIC: 28 µg/mL (≈ 49.7 µM)
[6]
  IC50: 113 µg/mL (≈ 200 µM)

## CCCCOC(=O)CCC(C)C1CCC2C3CCC4CC(NCCCNCCCCNCCCN)CCC4(C)C3CC(O)C12C (stereo not shown) [Claramine A21]
[6]
  IC50: 4 µg/mL (≈ 6.32 µM)

## CC(C)OC(=O)CCC(C)C1CCC2C3C(O)CC4CC(NCCCNCCCN)CCC4(C)C3CCC12C (stereo not shown) [Claramine C19]
[1]
  MIC S. aureus 340: 2 µg/mL (≈ 3.65 µM)
[2]
  MIC: 7 µg/mL (≈ 12.8 µM)
[3]; IC50 (CHO)/MIC, S. intermedius
  Therapeutic Ratio (TR): 65–114
[3]
  MIC: 2 µg/mL (≈ 3.65 µM)
[4]
  MIC: 4 µg/mL (≈ 7.3 µM)
[7]
  MIC: 14 µg/mL (≈ 25.6 µM)
[8]
  MIC: 14 µg/mL (≈ 25.6 µM)
[5]
  MIC P. aeruginosa 1051575: 14 µg/mL (≈ 25.6 µM)
[9]
  MIC: 28 µg/mL (≈ 51.1 µM)

## CC(C)OC(=O)CCC(C)C1CCC2C3CCC4CC(NCCCNCCCN)CCC4(C)C3CCC12C (stereo not shown) [Claramine E04]
[1]
  MIC: 3 µg/mL (≈ 5.64 µM)
[5]
  MIC: 3 µg/mL (≈ 5.64 µM)
[6]
  IC50: 13 µg/mL (≈ 24.4 µM)

## CCOC(=O)CCC(C)C1CCC2C3CCC4CC(NCCCNCCCCNCCCN)CCC4(C)C3CC(O)C12C (stereo not shown) [Claramine A20]
[6]
  IC50: 25 µg/mL (≈ 41.3 µM)

From PMC12693182, “Synthesis and QSAR Studies of Claramine Derivatives, a New Class of Broad-Spectrum Antimicrobial Agents” (Molecules, 2025)
